Test system: 598228-144-R-J1-PDC complex spheroid viability
Assay: Anticancer human tumor 598228-144-R-J1-PDC patient-derived serous endometrial adenocarcinoma cell line growth inhibition [GQUAD]
Conditions: for IC50: curve of first compound; for viability, T/C: stronger effect = lower value
Text: DNA G-quadruplex Stabilizer Agents in Combinations in Complex Spheroids
A high-throughput screen of multi-cell type tumor spheroids was designed to identify active combinations of DNA G-quadruplex stabilizer agents and targeted small molecules. Complex spheroids include a stromal component modeled by human endothelial cells (HUVEC) and fibroblasts modeled by human mesenchymal stem cells (MSCs). The concentration ranges selected for each drug and investigational agent were based upon clinically achievable concentrations if the clinical Cmax of the agent was known.
Compounds. The drugs and investigational agents: pidnarulex (CX-5461; NSC782164), APTO-253 (NSC789042), BRACO-19 (NSC847499), peposertib (NSC802822), ceralasertib (NSC780249), elimusertib (NSC800525), camonsertib (NSC841442), AZD-1390 (NSC803789), olaparib (NSC753686), talazoparib (NSC767125), ART-558 (NSC835418), sotorasib (NSC818433), MRTX-1133 (NSC836407), SN-38 (NSC673596), topotecan (NSC609699), etoposide (NSC141540), doxorubicin (NSC123127), gemcitabine (NSC613327), 5-fluorouracil (NSC19893), paclitaxel (NSC125973), vemurafenib (NSC761431), panobinostat (NSC761190), R-306465 (JNJ-16241199; NSC773264), adavosertib (NSC754352), TP-3654 (NSC805149), carboplatin (NSC241240), KSQ-4279 (NSC840948), and staurosporine (NSC755774) were obtained from the National Cancer Institute (NCI) Developmental Therapeutics Program Chemical Repository (34). The FDA-approved anticancer drug set is available from the NCI Developmental Therapeutics Program. […] The stock solutions were prepared in dimethyl sulfoxide (DMSO, Sigma-Aldrich, St. Louis, MO, cat. D2650) at 800-fold the tested concentration and stored at -70 degrees C prior to their use. All drugs and investigational agents were tested over a range starting from a high concentration at or near the clinical Cmax and decreasing in half-log increments. If the clinical Cmax for an agent had not been determined, the highest concentration tested was 10 microM.
2.3 Cell Culture. All cells were maintained in an incubator at 37 degrees C and 5% CO2 with 95% humidity. The PDC lines were cultured according to standard operating procedures established by the NCI PDMR. All PDCs were thawed and cultured in Matrigel-coated flasks prepared with a working solution of 1X Ham's F-12 nutrient mix, without supplementation (Invitrogen, cat. 11765054), 100 U/mL penicillin-streptomycin (Invitrogen, cat. 15140122), and 2.5% Matrigel (Corning Inc., cat. 354248) for the first three passages. The 857933-349-R-J2-PDC line was cultured in 6C/Colon 1B media, which includes advanced DMEM/F-12 (Thermo Fisher Scientific, cat. 12634028), 10 mM HEPES (Thermo Fisher Scientific, cat. 15630080), 1X GlutaMAX supplement (Thermo Fisher Scientific, cat. 35050061), 0.1 mg/mL primocin (InvivoGen, cat. ant-pm-2), 10% defined fetal bovine serum, heat inactivated (HyClone Laboratories Inc., cat. SH30070.03HI), 50% L-WRN conditioned media (ATCC, cat. CRL-3276), 1.25 mM N-Acetyl-L-cysteine (Sigma-Aldrich, cat. A9165), 10 mM nicotinamide (Sigma-Aldrich, cat. N0636), 1X B-27 supplement (Thermo Fisher Scientific, cat. 17504044), 1X N-2 supplement (Thermo Fisher Scientific, cat. 17502048), 10 microM Y-27632 dihydrochloride (Tocris Bioscience, cat. 1254), and 50 ng/mL human EGF recombinant protein (Thermo Fisher Scientific, cat. PHG0311). The 485176-168-R4-J1-PDC line was cultured in Panc media, which includes all 6C/Colon 1B media components plus 100 ng/mL human FGF-10 (Thermo Fisher Scientific, cat. 100-26), 500 nM SB-431542 (Selleckchem, cat. S1067), and gastrin (Tocris, cat. 3006).
[…]

[1] = second compound 0.0316 µM, first compound 0.0316 µM
[2] = second compound 0.0316 µM, first compound 0.1 µM
[3] = second compound 0.0316 µM, first compound 0.316 µM
[4] = second compound 0.0316 µM, first compound 1 µM
[5] = second compound 0.0316 µM, first compound 3.16 µM
[6] = second compound 0.0316 µM, first compound 10 µM
[7] = second compound 0.1 µM, first compound 0.0316 µM
[8] = second compound 0.1 µM, first compound 0.1 µM
[9] = second compound 0.1 µM, first compound 0.316 µM
[10] = second compound 0.1 µM, first compound 1 µM
[11] = second compound 0.1 µM, first compound 3.16 µM
[12] = second compound 0.1 µM, first compound 10 µM
[13] = second compound 0.316 µM, first compound 0.0316 µM
[14] = second compound 0.316 µM, first compound 0.1 µM
[15] = second compound 0.316 µM, first compound 0.316 µM
[16] = second compound 0.316 µM, first compound 1 µM
[17] = second compound 0.316 µM, first compound 3.16 µM
[18] = second compound 0.316 µM, first compound 10 µM
[19] = second compound 1 µM, first compound 0.0316 µM
[20] = second compound 1 µM, first compound 0.1 µM
[21] = second compound 1 µM, first compound 0.316 µM
[22] = second compound 1 µM, first compound 1 µM
[23] = second compound 1 µM, first compound 3.16 µM
[24] = second compound 1 µM, first compound 10 µM
[25] = second compound 3.16 µM, first compound 0.0316 µM
[26] = second compound 3.16 µM, first compound 0.1 µM
[27] = second compound 3.16 µM, first compound 0.316 µM
[28] = second compound 3.16 µM, first compound 1 µM
[29] = second compound 3.16 µM, first compound 3.16 µM
[30] = second compound 3.16 µM, first compound 10 µM
[31] = second compound 10 µM, first compound 0.0316 µM
[32] = second compound 10 µM, first compound 0.1 µM
[33] = second compound 10 µM, first compound 0.316 µM
[34] = second compound 10 µM, first compound 1 µM
[35] = second compound 10 µM, first compound 3.16 µM
[36] = second compound 10 µM, first compound 10 µM
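Also: spheroids exposed to the agents for one week before reading.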
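For viability, T/C in this document: percent of vehicle DMSO control viability so 100% = untreated growth.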

Work on `CC(C)n1c(=O)n(C)c2cnc3cc(F)c(-c4ccc(OCCCN5CCCCC5)nc4)cc3c21` + CN(C)c1ccc(Nc2c3ccc(NC(=O)CCN4CCCC4)cc3nc3cc(NC(=O)CCN4CCCC4)ccc23)cc1 yielded an IC50 (second compound 0.0316 µM) of 9920 nM, an IC50 (second compound 0.1 µM) of over 10000 nM and an IC50 (second compound 0.316 µM) of over 10000 nM. For the same compound, the IC50 (second compound 1 µM) was 8290 nM, the IC50 (second compound 3.16 µM) was 6870 nM and the IC50 (second compound 10 µM) was 217 nM. The viability, T/C [1] was 112%, the viability, T/C [2] was 79.6% and the viability, T/C [3] was 102%. The viability, T/C [4] was 93%, the viability, T/C [5] was 78.1% and the viability, T/C [6] was 49.7%. For the same compound, the viability, T/C [7] was 117%, the viability, T/C [8] was 82.9% and the viability, T/C [9] was 94%. It also gave a viability, T/C [10] of 92.2%, a viability, T/C [11] of 86.8% and a viability, T/C [12] of 57.2%. It also gave a viability, T/C [13] of 110%, a viability, T/C [14] of 102% and a viability, T/C [15] of 98.9%. For the same compound, the viability, T/C [16] was 89.3%, the viability, T/C [17] was 89.5% and the viability, T/C [18] was 60%. The viability, T/C [19] was 75.7%, the viability, T/C [20] was 87.4% and the viability, T/C [21] was 99.2%. For the same compound, the viability, T/C [22] was 87.7%, the viability, T/C [23] was 83.1% and the viability, T/C [24] was 43.5%. The viability, T/C [25] was 98.2%, the viability, T/C [26] was 78.3% and the viability, T/C [27] was 103%. It also gave a viability, T/C [28] of 80.2%, a viability, T/C [29] of 83.3% and a viability, T/C [30] of 34.7%. For the same compound, the viability, T/C [31] was 70.8%, the viability, T/C [32] was 60.3% and the viability, T/C [33] was 44.7%. The viability, T/C [34] was 29.6%, the viability, T/C [35] was 15.8% and the viability, T/C [36] was 5.05%.
Work on `CC1COCCN1c1cc(-c2ccnn2C)c2ccnc(-c3ccn[nH]3)c2n1` (centres undefined) + CN(C)c1ccc(Nc2c3ccc(NC(=O)CCN4CCCC4)cc3nc3cc(NC(=O)CCN4CCCC4)ccc23)cc1 yielded an IC50 (second compound 0.0316 µM) of 87.9 nM, an IC50 (second compound 0.1 µM) of 88.2 nM and an IC50 (second compound 0.316 µM) of 93.5 nM. It also gave an IC50 (second compound 1 µM) of 721 nM, an IC50 (second compound 3.16 µM) of 114 nM and an IC50 (second compound 10 µM) of 58.1 nM. It also gave a viability, T/C [1] of 86%, a viability, T/C [2] of 45.6% and a viability, T/C [3] of 40.3%. For the same compound, the viability, T/C [4] was 43.3%, the viability, T/C [5] was 49.2% and the viability, T/C [6] was 45.2%. The viability, T/C [7] was 79.7%, the viability, T/C [8] was 46.1% and the viability, T/C [9] was 45.5%. For the same compound, the viability, T/C [10] was 40.5%, the viability, T/C [11] was 42.4% and the viability, T/C [12] was 43.5%. For the same compound, the viability, T/C [13] was 76.3%, the viability, T/C [14] was 51.3% and the viability, T/C [15] was 32.7%. It also gave a viability, T/C [16] of 43.9%, a viability, T/C [17] of 45.5% and a viability, T/C [18] of 34.6%. The viability, T/C [19] was 70.6%, the viability, T/C [20] was 63.8% and the viability, T/C [21] was 50.5%. It also gave a viability, T/C [22] of 50%, a viability, T/C [23] of 45.7% and a viability, T/C [24] of 38.9%. The viability, T/C [25] was 74.6%, the viability, T/C [26] was 49.6% and the viability, T/C [27] was 40%. It also gave a viability, T/C [28] of 40.6%, a viability, T/C [29] of 43.4% and a viability, T/C [30] of 25.9%. For the same compound, the viability, T/C [31] was 73.5%, the viability, T/C [32] was 29.5% and the viability, T/C [33] was 20.5%. It also gave a viability, T/C [34] of 29.7%, a viability, T/C [35] of 27.6% and a viability, T/C [36] of 14.9%.

From PubChem BioAssay AID2060506 (Molecular Pharmacology Branch, DTP, NCI, 2025)
